The assay has as its system A375 xenografts. In words: A375 xenografts in athymic nu/nu mice treated with PLX4720 diet and/or BSO in drinking water. Format: in vivo. The protocol:
2-Mercaptoethanol is a reducing agent that leads to reduction of disulphide bonds to produce thiols. […] The effect of eliminating GSH in vivo was tested by treating mice (Athymic nu/nu) bearing A375 xenografts with rodent diet (AIN-76A) containing PLX4720 ([…], 416 mg/kg of diet) alone and in combination with BSO (15 mM in drinking water). […] Tumor xenografts in mice treated with the AIN-76 diet mixed with PLX4720 were responsive initially, but approximately 80% of these tumors acquired resistance to BRAFi treatment alone within 140 days (i.e., 20% complete responses; FIG. 2). On the contrary, the combination of BSO with PLX4720 produced nearly 90% complete and durable tumor responses (FIG. 4). […] Tumor progression was defined as a 50% increase (approximately a two standard deviation increase) in tumor volume from study initiation.
Female athymic nu/nu mice (age six weeks) were purchased from Envigo (previously Harlan Laboratories) and housed in the Animal Care Facility at The University of Iowa (Iowa City, Iowa). All procedures were approved by The University of Iowa Institutional Animal Care and Use Committee. All mice were naïve to treatments at the time of xenograft. For each xenograft, 1-3×10^6 cells (451LuBR and A375) were implanted subcutaneously in a 1:1 suspension of Matrigel (Corning) and PBS (flank) using a 27-gauge needle. For all in vivo studies, the mice were randomly assigned to experimental groups post-implant. Animals developed tumors within 7-10 days post-implant. Initiation of treatments was standardized to the time that tumor volume ([(longest length)×(smallest length^2)]/2) reached 80-100 mm^3.
The dose and mode of delivery for PBA was determined by analyzing the pharmacokinetics C-14 labeled PBA in mice (FIG. 5). These drugs were administered alone and in combination depending on the experimental group. The mice were monitored for their state of health every day. Tumor volume and animal weights were measured twice per week. Mice were euthanized when the observed state of health reached the endpoint according to the approved IACUC protocol or when the tumor volume reached 1500 mm^3.
Statistics was conducted using the tumor sizes (mm^3) that were obtained periodically throughout the experiments, resulting in repeated measurements for each mouse. Linear mixed effects regression models were used to estimate and compare treatment group-specific tumor growth curves. Pairwise comparisons were performed to identify treatment group differences in the growth curves. The Kaplan-Meier method was used to estimate the survival curves, and group comparisons were made using the log rank test. Mice who developed ulcerations were censored at day of euthanasia. […]

`CCCCS(=N)(=O)CCC(N)C(=O)O` (stereo not shown) [BSO, buthionine sulfoximine]: the tumor growth rate result (BSO 15 mM in drinking water, versus untreated controls) is reported as “No significant difference”. Besides, the “GSH concentrations in tumor samples” value (mice treated with BSO vs controls) is “significantly lower”.

As for `CCCS(=O)(=O)Nc1ccc(F)c(C(=O)c2c[nH]c3ncc(Cl)cc23)c1F` [PLX4720], under “PLX4720 416 mg/kg of diet, alone or with BSO 15 mM in drinking water”, the “complete (and durable) tumor responses” value came to 20%. Further, under “within 140 days, PLX4720 416 mg/kg of AIN-76A diet”, the “tumors that acquired resistance to BRAFi treatment” value is on record as “approximately 80%”.

These data come from US11596613B2, “Compositions and methods for treating cancer” (UNIVERSITY OF IOWA RESEARCH FOUNDATION, priority 2015, dated 2023).
